The values below come from patent publication US4576952A, “Pyrazolopyridine derivatives and their use as anti-inflammatory and/or anti-allergic agents” (Beecham Group p.l.c., priority 1984, dated 1986).

For one assay, the system named is cantharidin mouse ear. The assay can be described thus: Mouse Cantharidin Screen (topical anti-inflammatory activity, mouse ear). In kind it is in vivo. The following applies: Mouse Cantharidin Data (24 h). On the procedure:
Compounds were tested for topical anti-inflammatory activity in a cantharidin mouse ear screen, modified from Swingle et al [Swingle, K. F., Reiter, M. J. and Schwartzmiller, D. H., Arch. Int. Pharmacodyn., (1981), 254, 168-176].
25 μg cantharidin (in 10 μl THF/MeOH) was applied to both ears. Compound, in the same solvent, was applied at the same time, to the left ear only. Ears were weighed 24 h after cantharidin application. Percentage inhibition of the acute inflammatory swelling refers to the increase in weight of left ears (cantharidin plus compound) compared with solvent-treated negative controls, as a proportion of the increase in weight of right ears (cantharidin alone) over similar controls.

In the next assay the test system is mice. The settings on record: in mice; J. Heterocycl. Chem. 1971, 8(6), 1035-7; cited from earlier work.
Assay [1] deals with mouse sensitised to oxazolone. The experiment in a line: Mouse Oxazolone Screen (topical anti-inflammatory activity). It is filed as in vivo. The settings on record: ear, compound 1 h before oxazolone challenge, ear weights 24 h later, r^2 =0.96. On the procedure: Compounds were tested for topical anti-inflammatory activity in a screen using the mouse sensitised to oxazolone, by a method modified from that of Dietrich and Hess [Dietrich, F. M., and Hess, R., Int. Arch. Allergy, (1970), 38, 246-259].
Mice were sensitised with oxazolone (2 mg in 20 μl ethanol) on a shaved area of the abdomen. Five days later, the animals received 10 μl THF/MeOH (1:1 v/v) on the right ear, and the test compound in the same solvent on the left ear. One hour later, the animals were challenged with 100 μg oxazolone in 10 μl acetone on each ear. Ear weights were measured 24 h later. Percentage inhibition of the inflammatory swelling refers to the increase in weight of left ears (oxazolone plus compound) compared with solvent-treated negative controls, as a proportion of the increase in weight of right ears (oxazolone alone) over similar controls.

Another assay relates to 5-Lipoxygenase. The experiment in a line: RBL-1 5-Lipoxygenase Screen. It is filed as biochemical. The following applies: 20 μM; 10,000 g supernatant from RBL-1 cells, 29° C. On the procedure:
5-Lipoxygenase enzyme was prepared as a 10,000 g supernatant from RBL-1 cells by the method of Jakschik [Jakschik, B. A., Sun, F. F., Lee, L. M. and Steinhoff, M. M., 1980, Biochem. Biophys. Res. Comm. 95, 103]. The 10,000 g supernatant was diluted with homogenization buffer to the equivalent of 1.5-2.5×10^7 cells ml^-1 and made 2 mM with respect to CaCl2. Aliquots of 0.5 ml were then dispensed into tubes, and incubated at 29° C. with 5 γl ethanol or compound in ethanol at the desired concentration for 2 min. Then [1-^14 C] arachidonic acid was added in buffer to give a final concentration of 6.3 μm and 0.2 μCi per incubation, and the reaction continued at 29° C. for 2 min. The reaction was terminated by adding 1 ml of acetone and cooling on ice, 0.5 ml of ice-cold saline and 10 μl of 2N formic acid were added, and the mixture was extracted with 2×2 ml of chloroform. The extract was stored under N2 at -20° C. until analysis by chromatography. Activity was measured as the percentage of total radioactivity found in 5-HETE and 5,12-diHETE, and inhibition calculated as the decrease in formation of the sum of these two species in compound-treated incubates relative to control incubates.

Take `Cc1cc(Nc2cccc(O)c2)c2c(cnn2C)n1` [Example 8, 1,5-Dimethyl-7-(3-hydroxyanilino)-1H-pyrazolo[4,3-b]pyridine]: the % Inhibition (in general, the change of the read-out against control, counted positive when it falls) in the assay with cantharidin mouse ear (278 μg/ear) is reported as 31%. Consider `CC(=O)N(C(C)=O)c1cc(C)nc2c(C)n[nH]c12` [compound wherein R is NAc2], for which the CNS antidepressant activity result in the assay on mice is recorded as “CNS antidepressant activity”.

Consider `Cc1cc(Nc2cccc(O)c2)c2[nH]ncc2n1` [Example 5, 7-(3-Hydroxyanilino)-5-methyl-1H-pyrazolo[4.3-b]pyridine], for which the “% Inhibition” value in the assay with cantharidin mouse ear (500 μg/ear) worked out at 49%. Take `Cc1cc(Nc2ccc(O)cc2)c2[nH]ncc2n1` [Example 4, 7-(4-Hydroxyanilino)-5-methyl-1H-pyrazolo[4,3-b]pyridine]: the ED50 in assay [1] turned out to be 240 μg/ear. In addition, the “inhibition (decrease in formation of 5-HETE and 5,12-diHETE)” value in the assay on 5-Lipoxygenase was 66%. For the same compound, the “% Inhibition” value with cantharidin mouse ear (200 μg/ear) is listed as 71%.

Turning to `Cc1cc(Nc2ccc(C#N)cc2)c2[nH]ncc2n1` [Example 1, 7-(4-Cyanoanilino)-5-methyl-1H-pyrazolo[4,3-b]pyridine], in the assay on cantharidin mouse ear (300 μg/ear), the “% Inhibition” value is 29%.
